In assay [1] the test system is human leucocyte antigen (HLA) class I molecule. As to the kind of experiment: CTL assay: lysis of 51-chromium labelled, HLA-matched B lymphoblastoid target cells sensitized with peptide. The format is cell-based. The following applies: for HLA restriction of the peptide (through one or more of the antigens): HLA restrictions not yet fully worked out. As to the method:
Peptides in accordance with the invention can also be used for diagnostic purposes. […] Briefly, fresh peripheral blood mononuclear cells (or lymphocytes obtained from biopsy material) are prepared and added at ratios of 50:1, 25:1 and 10:1 to 10^4 51 -chromium labelled B lymphoblastoid cells matched for the relevant HLA molecules. The HLA type of patient is determined in known manner by tissue typing, and B lymphoblastoid cells obtained from a donor of known HLA type (again determined in known manner by tissue typing) and transformed with Epstein Barr using known techniques. A peptide in accordance with the invention, which interacts with the relevant HLA molecule, is also added to the cells in a concentration of 10 to 100 u molar. After 4 hours incubation the supernatant is removed and the released ^51 -chromium measured. The ^51 -chromium released is compared to that released by incubation of labelled cells in detergent, which gives a maximum value, and released by labelled cells incubated in medium alone, which gives a minimum value. If lysis (defined by ^51 -chromium released of at least two times the minimum value) is observed it means that there are cytotoxic T lymphocytes in the patients' mononuclear cells and these are likely to be indicative of infection with HIV.

For assay [2] the test system is unchanged. The following applies: disclosed in prior application EP 0346022; cited from earlier work.

Like-named read-outs stand apart in the source and are kept apart here. Where no end group is shown, it is not given here.

On to “LEEMMTACQGVGGPGY [p24-22, NH2 -leucine-glutamic acid-glutamic acid-methionine-methionine-threonine-alanine-cysteine-glutamine-glycine -valine-glycine-glycine-proline-glycine-tyrosine-COOH]”, for which, in assay [1], the “HLA restriction of the peptide (through one or more of the antigens)” value is “HLA-A3 or A29 or B44 or B14”. Same read-out and setting: with “CVGGPGHKARVL [p24-23, NH2 -cysteine-valine-glycine-glycine-proline-glycine-histidine-lysine-alanine- arginine-valine-leucine-COOH]” the entry was “LA-A1 or B7 or B8”; with “VHQAISPRTLNAWVKC [p24-2, NH2 -valine-histidine-glutamine-alanine-isoleucine-serine-proline-arginine-threonine-leucine-asparagine-alanine -tryptophan-valine-lysine-cysteine-COOH]”, “HLA-A23 or A30 or B8”; with “DLNTMLNTVGGHQAAC [p24-6, NH2 -aspartic acid-leucine-asparagine-threonine-methionine-leucine-asparagine-threonine- valine-glycine-glycine -histidine-glutamine-alanine-alanine-cysteine-COOH]”, “HLA-A3 or A29 or B44 or B14”. Take “VQNANPDCKTILKALY [p24-20, NH2 -valine-glutamine-asparagine-alanine-asparagine-proline-aspartic acid-cysteine-lysine-threonine-isoleucine-leucine-lysine-alanine-leucine-tyrosine-COOH]”: the “HLA class I molecule with which the peptide interacts specifically” value in assay [1] is “HLA B8”. The “recognition of the peptide by a seropositive donor” value in assay [1] (seropositive donor, HLA type as printed) is listed as “recognised by a seropositive donor of the HLA type HLA-A3, 29B44, 14”. For the substance “NH2 -lysine-arginine-tryptophan-isoleucine-isoleucine-leucine-glycine-leucine- asparagine-lysine-isoleucine-valine-arginine-methionine-tyrosine -cysteine-COOH [p24-14]”, the “HLA class I molecule with which the peptide interacts specifically” value in assay [2] is “HLA B27”.

Values taken from US5700469A, “HIV-1 core protein fragments” (Medical Research Council, priority 1990, dated 1997).
